The test system of series [1] is Pseudomonas aeruginosa ATCC 15692. Further details: method as in PMID 27025339. As to conditions: reference fluoroquinolones, cited from earlier work; for MIC (μmol), P. Aeruginosa (ATCC 15692): value in parentheses.
For series [2], the system named is Staphylococcus aureus ATCC 6538. Further details: method as in PMID 27025339. The conditions noted are these: reference fluoroquinolones, cited from earlier work; for MIC (μmol), S. Aureus (ATCC 6538): value in parentheses.
The test system of series [3] is Bacillus subtilis ATCC 6633. Kind of series: microbe, parasite or virus in culture. Also on record: species or system bacteria; Broth microdilution MIC in Mueller-Hinton broth, absorbance at 620 nm. As to conditions: ATCC6633, 24 h, read-out: Observed MIC, uM (B. subtilis). The method, boiled down:
(§1)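 Broth microdilution in Mueller–Hinton broth per CLSI, inoculum about 2.5–3 × 10^4 cells/mL mixed 1:1 with compound, 24 h at 37 °C. Growth read by absorbance at 620 nm; MIC from dose–response, at least two runs in triplicate.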

Series [4] relates to Staphylococcus aureus ATCC 6538. Briefly: microbe, parasite or virus in culture. The conditions noted are these: ATCC6538, 24 h, read-out: Observed MIC, uM (S. aureus). Further details: species or system bacteria; Broth microdilution MIC in Mueller-Hinton broth, absorbance at 620 nm. The method, boiled down:
as §1

For series [5], the system named is Pseudomonas aeruginosa ATCC 15692. Kind of series: Antibacterial MIC, microdilution susceptibility test (CLSI). It is filed as cell-based. The method, boiled down:
(§2)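 Broth microdilution per CLSI in Mueller–Hinton broth. Inoculum ~2.5–3 × 10^4 cells/mL, mixed 1:1 with compound (DMSO stocks diluted in water), incubated 37 °C for 24 h, growth read as absorbance at 620 nm. MIC from dose–response on selected compounds, at least two experiments in triplicate.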
In general terms: Broth dilution looks for growth in wells or tubes with falling amounts of substance.

For series [6], the system named is Bacillus subtilis ATCC 6633. The description is as above. As to conditions: Bacillus subtilis, ATCC6633, 24 h, Mueller–Hinton broth, 37 °C, 24 h; read-out: MIC, μg/mL ± SE, B. Subtilis (ATCC 6633). It is filed as cell-based. The method, boiled down:
as §2

Series [7] relates to Escherichia coli ATCC 47076. The series is described as above. It is filed as cell-based. In short, it runs like this: as §2
Series [8] concerns Staphylococcus aureus ATCC 6538. The description is as above. The conditions noted are these: Staphylococcus aureus, ATCC6538, 24 h, Mueller–Hinton broth, 37 °C, 24 h; read-out: MIC, μg/mL ± SE, S. Aureus (ATCC 6538). The series is classed as cell-based. In short, it runs like this: as §2
Where [9] appears, read: ATCC15692, Mueller–Hinton broth, 37 °C, 24 h, read-out: MIC, μg/mL ± SE, P. Aeruginosa (ATCC 15692).
Where [10] appears, read: ATCC15692, value in parentheses, read-out: MIC (μmol), P. Aeruginosa (ATCC 15692) (converted).
Setting [11] is: ATCC47076, Mueller–Hinton broth, 37 °C, 24 h, read-out: MIC, μg/mL ± SE, E. Coli (ATCC 47076).
The mark [12] stands for this setting: ATCC47076, value in parentheses, read-out: MIC (μmol), E. Coli (ATCC 47076) (converted).

Converted amounts (≈) assume the structure as drawn. Read-outs that look alike come from different tables or passages of the source.

As to `O=C(O)c1cn(C2CC2)c2cc(N3CCNCC3)c(F)cc2c1=O` [Ciprofloxacin], in [1], the “MIC, μg/mL ± SE, P. Aeruginosa (ATCC 15692)” value is 4.8 ± 0.5 µg/mL (≈ 14.5 µM) and the “MIC (μmol), P. Aeruginosa (ATCC 15692)” value is 14.5 µmol. Moreover, in [2], the “MIC, μg/mL ± SE, S. Aureus (ATCC 6538)” value is 1250.0 ± 9.6 µg/mL (≈ 3770 µM) and the “MIC (μmol), S. Aureus (ATCC 6538)” value was 3772.4 µmol.
As to `O=C(N[C@@H](Cc1ccccc1)C(=O)NC[C@H]1CN(c2ccc(N3CCOCC3)c(F)c2)C(=O)O1)c1cnccn1` [Compound 9c, N-((S)-1-((((S)-3-(3-Fluoro-4-morpholinophenyl)-2-oxooxazolidin-5-yl)methyl)amino) -1-oxo-3-phenylpropan-2-yl)pyrazine-2-carboxamide], the melting point (as a rule, the temperature of the solid-liquid transition) lay within 172 to 174 °C. For the same compound, the MIC in series [3] is 58.3 µM (≈ 32 µg/mL). Also, the MIC in [4] was 58.3 µM (≈ 32 µg/mL). Besides, the MIC in series [5] (setting [9]) worked out at 32 ± 0.8 µg/mL. In addition, the MIC in series [5] (setting [10]) is 58.3 µM. In addition, the MIC in series [6] is 32 ± 0.5 µg/mL (≈ 58.3 µM). For the same compound, the MIC in series [7] (setting [11]) stood at 32 ± 1 µg/mL. For the same compound, in series [7] (setting [12]), the MIC is 58.3 µM. Besides, the MIC in [8] came out at 32 ± 0.9 µg/mL (≈ 58.3 µM).
Turning to `O=C1O[C@@H](CNCc2ccc(F)cc2F)CN1c1ccc(N2CCOCC2)c(F)c1` [Compound 11e, (S)-5-[{(2,4-Difluorobenzyl)amino}methyl]-3-(3-fluoro-4-morpholinophenyl) oxazolid-ine-2-one], the melting point was in the range of 74 to 76 °C. For the same compound, the MIC in [3] stood at 75.9 µM (≈ 32 µg/mL). In addition, in [4], the MIC was determined as 75.9 µM (≈ 32 µg/mL). For the same compound, in series [5] (setting [9]), the MIC was determined as 32 ± 0.5 µg/mL. In series [5] (setting [10]), the MIC was 75.9 µM. In addition, the MIC in series [6] was found to be 32 ± 1.3 µg/mL (≈ 75.9 µM). Further, the MIC in [7] (setting [11]) is 32 ± 0.3 µg/mL. In [7] (setting [12]), the MIC was 75.9 µM. Moreover, the MIC in [8] came out at 32 ± 0.2 µg/mL (≈ 75.9 µM).
The compound `O=C(CCCC[C@@H]1SC[C@@H]2NC(=O)N[C@@H]21)NC[C@H]1CN(c2ccc(N3CCOCC3)c(F)c2)C(=O)O1` [Compound 15, N-(((S)-3-(3-Fluoro-4-morpholinophenyl)-2-oxooxazolidin-5-yl)methyl)-5-((3aS, 4S, 6aR)-2-oxohexahydro-1H-thieno [3,4-d]imidazol-4-yl)pentanamide] came in with a melting point of 222 to 224 °C. Also, the MIC in [3] came to 61.3 µM (≈ 32 µg/mL). Further, the MIC in [4] was found to be 61.3 µM (≈ 32 µg/mL). The MIC in series [5] (setting [9]) was 32 ± 0.3 µg/mL. Besides, in [5] (setting [10]), the MIC is 61.3 µM. In series [6], the MIC was 32 ± 0.2 µg/mL (≈ 61.3 µM). Moreover, in [7] (setting [11]), the MIC is 32 ± 0.7 µg/mL. Further, the MIC in series [7] (setting [12]) was 61.3 µM. In addition, in [8], the MIC turned out to be 32 ± 0.4 µg/mL (≈ 61.3 µM).
As to `CCn1cc(C(=O)O)c(=O)c2cc(F)c(N3CCNCC3)cc21` [Norfloxacin], in [1], the “MIC, μg/mL ± SE, P. Aeruginosa (ATCC 15692)” value is 4.8 ± 0.2 µg/mL (≈ 15 µM) and the “MIC (μmol), P. Aeruginosa (ATCC 15692)” value is 15.0 µmol. In addition, in series [2], the “MIC, μg/mL ± SE, S. Aureus (ATCC 6538)” value was 1250.0 ± 14.2 µg/mL (≈ 3910 µM) and the “MIC (μmol), S. Aureus (ATCC 6538)” value is 3914.3 µmol.

The values above are taken from publication PMC8880098, “Synthesis, Antibacterial Evaluation, and Computational Studies of a Diverse Set of Linezolid Conjugates” (Pharmaceuticals, 2022).
